Experimental data as given in US20180186742A1, “PICOLINAMIDES AS FUNGICIDES” (Dow AgroSciences LLC, priority 2017, published 2018).
Like-named read-outs stand apart in the source and are kept apart here.

How the values were obtained:
Zymoseptoria tritici = assay: Leaf blotch of wheat (SEPTTR), disease control on wheat seedlings; type: in vivo; conditions: for pest or weed control at 121.5 g/ha: low volume application at 121.5 g/H; for pest or weed control at 100 ppm: high volume application at 100 ppm
Description: Technical grades of materials were dissolved in acetone, which were then mixed with nine volumes of water containing 110 ppm Triton X-100. The fungicide solutions were applied onto wheat seedlings using an automated booth sprayer to run-off. All sprayed plants were allowed to air dry prior to further handling. All fungicides were evaluated using the aforementioned method for their activity vs. all target diseases, unless stated otherwise. Wheat leaf blotch and brown rust activity were also evaluated using track spray applications, in which case the fungicides were formulated as EC formulations, containing 0.1% Trycol 5941 in the spray solutions. Wheat plants (variety Yuma) were grown from seed in a greenhouse in 50% mineral soil/50% soil-less Metro mix until the first leaf was fully emerged, with 7-10 seedlings per pot. These plants were inoculated with an aqueous spore suspension of Zymoseptoria tritici either prior to or after fungicide treatments. After inoculation the plants were kept in 100% relative humidity (one day in a dark dew chamber followed by two to three days in a lighted dew chamber at 20° C.) to permit spores to germinate and infect the leaf. The plants were then transferred to a greenhouse set at 20° C. for disease to develop. When disease symptoms were fully expressed on the 1st leaves of untreated plants, infection levels were assessed on a scale of 0 to 100 percent disease severity. Percent disease control was calculated using the ratio of disease severity on treated plants relative to untreated plants.

Puccinia triticina = assay: Wheat brown rust (PUCCRT), disease control on wheat seedlings; type: in vivo; conditions: for pest or weed control at 121.5 g/ha: low volume application at 121.5 g/H; for pest or weed control at 100 ppm: high volume application at 100 ppm
Description: Technical grades of materials were dissolved in acetone, which were then mixed with nine volumes of water containing 110 ppm Triton X-100. The fungicide solutions were applied onto wheat seedlings using an automated booth sprayer to run-off. All sprayed plants were allowed to air dry prior to further handling. All fungicides were evaluated using the aforementioned method for their activity vs. all target diseases, unless stated otherwise. Wheat leaf blotch and brown rust activity were also evaluated using track spray applications, in which case the fungicides were formulated as EC formulations, containing 0.1% Trycol 5941 in the spray solutions. Wheat plants (variety Yuma) were grown from seed in a greenhouse in 50% mineral soil/50% soil-less Metro mix until the first leaf was fully emerged, with 7-10 seedlings per pot. These plants were inoculated with an aqueous spore suspension of Puccinia triticina either prior to or after fungicide treatments. After inoculation the plants were kept in a dark dew room at 22° C. with 100% relative humidity overnight to permit spores to germinate and infect the leaf. The plants were then transferred to a greenhouse set at 24° C. for disease to develop. Fungicide formulation, application and disease assessment followed the procedures as described in the Example A.

[1] = 24 h, 1 Day Protectant, read-out: SEPTTR disease control, 1DP, LV activity
[2] = 72 h, 3 Day Curative, read-out: SEPTTR disease control, 3DC, LV activity
[3] = 24 h, 1 Day Protectant, read-out: PUCCRT disease control, 1DP, LV activity
[4] = 72 h, 3 Day Curative, read-out: PUCCRT disease control, 3DC, LV activity
[5] = 24 h, 1 Day Protectant, read-out: SEPTTR disease control, 1DP, HV activity
[6] = 72 h, 3 Day Curative, read-out: SEPTTR disease control, 3DC, HV activity
[7] = 24 h, 1 Day Protectant, read-out: PUCCRT disease control, 1DP, HV activity
[8] = 72 h, 3 Day Curative, read-out: PUCCRT disease control, 3DC, HV activity
[9] = 24 h, 1 Day Protectant, wheat leaf blotch, read-out: SEPTTR 1DP disease control, LV activity
[10] = 72 h, 3 Day Curative, wheat leaf blotch, read-out: SEPTTR 3DC disease control, LV activity
[11] = 24 h, 1 Day Protectant, wheat brown rust, read-out: PUCCRT 1DP disease control, LV activity
[12] = 72 h, 3 Day Curative, wheat brown rust, read-out: PUCCRT 3DC disease control, LV activity

SMILES	pest or weed control at 100 ppm (Zymoseptoria tritici; [5]) [%]	pest or weed control at 100 ppm (Zymoseptoria tritici; [6]) [%]	pest or weed control at 100 ppm (Puccinia triticina; [7]) [%]	pest or weed control at 100 ppm (Puccinia triticina; [8]) [%]	other results
COc1ccnc(C(=O)N[C@@H](C)C(=O)O[C@@H](C)[C@H](c2ccc(F)cc2)C2CC2)c1OCOC(C)=O [Compound 171]					pest or weed control at 121.5 g/ha (Zymoseptoria tritici; [1]): > 80%; pest or weed control at 121.5 g/ha (Zymoseptoria tritici; [2]): > 80%; pest or weed control at 121.5 g/ha (Puccinia triticina; [3]): > 80%; pest or weed control at 121.5 g/ha (Puccinia triticina; [4]): > 80%
COc1ccnc(C(=O)N[C@@H](C)C(=O)O[C@@H](C)[C@H](c2ccc(Cl)cc2Cl)C(C)C)c1O [Compound 330]	< 80	< 80	> 80	> 80	
COc1ccnc(C(=O)N[C@@H](C)C(=O)O[C@@H](C)[C@H](c2ccc(OC(C)C)cc2)C(C)C)c1O [Compound 336]	< 80	< 80	> 80	< 80	
COc1ccnc(C(=O)N[C@@H](C)C(=O)O[C@@H](C)[C@@H](c2ccccc2)C2CCCC2)c1O [Compound 106]	< 0	< 0	< 80	< 0	
COc1ccnc(C(=O)N[C@@H](C)C(=O)O[C@@H](C)[C@H](c2c(F)cccc2Cl)C(C)C)c1O [Compound 343]	> 80	> 80	> 80	> 80	
COc1ccnc(C(=O)N[C@@H](C)C(=O)O[C@@H](C)[C@@H](c2ccccc2)C(C)C)c1O [Compound 105]	< 80	< 80	> 80	< 0	
COc1ccnc(C(=O)N[C@@H](C)C(=O)O[C@@H](C)[C@H](c2cc(F)ccc2C)C(C)C)c1O [Compound 324]	< 80	< 80	> 80	> 80	
COc1cc(F)ccc1[C@@H](C1CCC1)[C@H](C)OC(=O)[C@H](C)NC(=O)c1nccc(OC)c1O [Compound 142]	< 0	< 80	> 80	> 80	
COc1ccnc(C(=O)N[C@@H](C)C(=O)O[C@@H](C)[C@@H](c2ccc(F)cc2C)C2CCCC2)c1O [Compound 118]	< 80	< 80	> 80	< 80	
COc1ccnc(C(=O)N[C@@H](C)C(=O)O[C@@H](C)[C@H](c2cc(F)ccc2F)C(C)C)c1OC(C)=O [Compound 392]					pest or weed control at 121.5 g/ha (Zymoseptoria tritici; [9]): < 80%; pest or weed control at 121.5 g/ha (Zymoseptoria tritici; [10]): > 80%; pest or weed control at 121.5 g/ha (Puccinia triticina; [11]): > 80%; pest or weed control at 121.5 g/ha (Puccinia triticina; [12]): > 80%
COc1ccnc(C(=O)N[C@@H](C)C(=O)O[C@H](C)[C@H](c2ccc(F)cc2C)C2CCCCC2)c1O [Compound 129]	> 80	< 80	> 80	< 0	
COc1ccnc(C(=O)N[C@@H](C)C(=O)O[C@@H](C)[C@H](c2ccc(F)cc2C)C2CCCCC2)c1O [Compound 123]	> 80	> 80	> 80	> 80	
COc1ccnc(C(=O)N[C@@H](C)C(=O)O[C@@H](C)[C@@H](c2ccc(C)cc2C)C2CCCC2)c1O [Compound 132]	> 80	< 80	> 80	> 80	
COc1ccnc(C(=O)N[C@@H](C)C(=O)O[C@@H](C)[C@@H](c2ccccc2)C2CCCC2)c1OC(C)=O [Compound 161]					pest or weed control at 121.5 g/ha (Zymoseptoria tritici; [1]): < 80%; pest or weed control at 121.5 g/ha (Zymoseptoria tritici; [2]): > 80%; pest or weed control at 121.5 g/ha (Puccinia triticina; [3]): > 80%; pest or weed control at 121.5 g/ha (Puccinia triticina; [4]): < 80%
COCCC(=O)Oc1c(OC)ccnc1C(=O)N[C@@H](C)C(=O)O[C@@H](C)[C@H](c1ccc(OC)cc1F)C(C)C [Compound 247]					pest or weed control at 121.5 g/ha (Zymoseptoria tritici; [1]): < 80%; pest or weed control at 121.5 g/ha (Puccinia triticina; [3]): > 80%; pest or weed control at 121.5 g/ha (Puccinia triticina; [4]): > 80%
COc1ccc([C@H](C(C)C)[C@H](C)OC(=O)[C@H](C)NC(=O)c2nccc(OC)c2O)cc1 [Compound 338]	< 80	< 80	> 80	> 80	
CCC(CC)[C@@H](c1ccc(F)cc1OC)[C@H](C)OC(=O)[C@H](C)NC(=O)c1nccc(OC)c1O [Compound 145]	< 80	> 80	> 80	> 80	
COc1ccnc(C(=O)N[C@H](C(=O)O[C@@H](C)[C@H](c2ccc(F)cc2C)C(C)C)C(C)C)c1O [Compound 318]	< 80	< 80	> 80	> 80	
COc1ccnc(C(=O)N[C@@H](C)C(=O)O[C@@H](C)[C@@H](c2ccc(F)cc2C)C2CCCCC2)c1O [Compound 119]	> 80	> 80	> 80	< 80	
COc1cc(F)ccc1[C@H](C1CCCCC1)[C@H](C)OC(=O)[C@H](C)NC(=O)c1nccc(OC)c1O [Compound 143]	> 80	< 80	> 80	> 80	
COc1ccnc(C(=O)N[C@@H](C)C(=O)O[C@@H](C)[C@@H](c2ccc(C)cc2C)C(C)C)c1O [Compound 131]	< 80	< 80	> 80	> 80	
CCC(CC)[C@@H](c1ccccc1)C(C)OC(=O)[C@H](C)NC(=O)c1nccc(OC)c1O (some centres unmarked) [Compound 112]	> 80	> 80	> 80	> 80	
COc1ccnc(C(=O)N[C@@H](C)C(=O)O[C@@H](C)[C@H](c2ccc(C)cc2)C2CC2)c1OCOC(C)=O [Compound 167]					pest or weed control at 121.5 g/ha (Zymoseptoria tritici; [1]): > 80%; pest or weed control at 121.5 g/ha (Zymoseptoria tritici; [2]): > 80%; pest or weed control at 121.5 g/ha (Puccinia triticina; [3]): > 80%; pest or weed control at 121.5 g/ha (Puccinia triticina; [4]): > 80%
COc1cc(F)ccc1[C@@H](C1CCCCC1)[C@H](C)OC(=O)[C@H](C)NC(=O)c1nccc(OC)c1O [Compound 139]	> 80	< 0	> 80	< 80	
COc1ccnc(C(=O)N[C@@H](C)C(=O)O[C@@H](C)[C@H](c2c(F)cccc2Cl)C(C)C)c1OC(C)=O [Compound 390]					pest or weed control at 121.5 g/ha (Zymoseptoria tritici; [9]): > 80%; pest or weed control at 121.5 g/ha (Zymoseptoria tritici; [10]): > 80%; pest or weed control at 121.5 g/ha (Puccinia triticina; [11]): > 80%; pest or weed control at 121.5 g/ha (Puccinia triticina; [12]): > 80%
COCCC(=O)Oc1c(OC)ccnc1C(=O)N[C@@H](C)C(=O)O[C@@H](C)[C@H](c1ccc(C)cc1)C(C)C [Compound 245]					pest or weed control at 121.5 g/ha (Zymoseptoria tritici; [1]): < 80%; pest or weed control at 121.5 g/ha (Puccinia triticina; [3]): > 80%; pest or weed control at 121.5 g/ha (Puccinia triticina; [4]): > 80%
CCC(C)[C@@H](c1ccccc1C)[C@H](C)OC(=O)[C@H](C)NC(=O)c1nccc(OC)c1OC(=O)C(C)C (some centres unmarked) [Compound 386]					pest or weed control at 121.5 g/ha (Zymoseptoria tritici; [9]): < 80%; pest or weed control at 121.5 g/ha (Zymoseptoria tritici; [10]): > 80%; pest or weed control at 121.5 g/ha (Puccinia triticina; [11]): > 80%; pest or weed control at 121.5 g/ha (Puccinia triticina; [12]): > 80%
COc1ccnc(C(=O)N[C@@H](C)C(=O)O[C@@H](C)[C@H](c2ccc(OC(F)(F)F)cc2)C(C)C)c1O [Compound 335]	> 80	< 80	> 80	> 80	
